Measured values from PubChem BioAssay AID248 (DTP/NCI, 2004).
Values joined by “and” are separate entries in the source; they are usually repeats but may differ in a detail not shown here. Identical values can stand only once. Toxic doses and inconclusive results are not listed. Cut-off read from the data, not from the text of the source: active = T/C of 150% or more; inactive = T/C below 125%.

System: L1210 leukemia ip in BDF1 mice, survival T/C
Test: NCI In Vivo Anticancer Drug Screen. Data for tumor model L1210 Leukemia (intraperitoneal) in B6D2F1 (BDF1) mice
Conditions: endpoint: mean survival time, higher = longer survival
Summary of the method: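 Mice bearing the transplanted tumor received compound or vehicle. Survival of the treated group was divided by that of the vehicle-treated control group to give the ratio.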

[1] = dose: 100.0 mg/kg/injection, schedule: Q01DX001 (ip), vehicle: saline
[2] = dose: 200.0 mg/kg/injection, schedule: Q01DX001 (ip), vehicle: saline
[3] = dose: 100.0 mg/kg/injection, schedule: Q04DX003 (ip), vehicle: Klucel (hydroxypropylcellulose) (HPC)
[4] = dose: 200.0 mg/kg/injection, schedule: Q04DX003 (ip), vehicle: Klucel (hydroxypropylcellulose) (HPC)
[5] = dose: 400.0 mg/kg/injection, schedule: Q04DX003 (ip), vehicle: Klucel (hydroxypropylcellulose) (HPC)
[6] = dose: 50.0 mg/kg/injection, schedule: Q01DX009 (ip), vehicle: Klucel (hydroxypropylcellulose) (HPC)
[7] = dose: 100.0 mg/kg/injection, schedule: Q01DX009 (ip), vehicle: Klucel (hydroxypropylcellulose) (HPC)
[8] = dose: 100.0 mg/kg/injection, schedule: Q01DX009 (ip), vehicle: saline with Tween-80
[9] = dose: 200.0 mg/kg/injection, schedule: Q01DX009 (ip), vehicle: saline with Tween-80
[10] = dose: 400.0 mg/kg/injection, schedule: Q01DX009 (ip), vehicle: saline with Tween-80
[11] = dose: 300.0 mg/kg/injection, schedule: Q01DX001 (ip), vehicle: carboxymethylcellulose (CMC)

Measured: T/C

O=c1cc[nH]c2c([N+](=O)[O-])cccc12
inactive: [1] 99 % of control | [2] 96 % of control

O=[Se]1OCc2ccccc2CO1
inactive: dose: 9.5 mg/kg/injection, schedule: Q01DX001 (ip), vehicle: saline with Tween-80 101 % of control | dose: 19.0 mg/kg/injection, schedule: Q01DX001 (ip), vehicle: saline with Tween-80 106 % of control | dose: 38.0 mg/kg/injection, schedule: Q01DX001 (ip), vehicle: saline with Tween-80 113 % of control

CN(CCC#N)C(=O)Nc1ccccc1
inactive: dose: 100.0 mg/kg/injection, schedule: Q01DX Z (ip), vehicle: methylcellulose (MC) 103 % of control | dose: 200.0 mg/kg/injection, schedule: Q01DX Z (ip), vehicle: methylcellulose (MC) 95 % of control

Cc1c(NC(=O)OCc2ccccc2)no[n+]1[O-]
inactive: dose: 100.0 mg/kg/injection, schedule: Q04DX002 (ip), vehicle: saline 102 % of control | dose: 200.0 mg/kg/injection, schedule: Q04DX002 (ip), vehicle: saline 98 % of control | dose: 400.0 mg/kg/injection, schedule: Q04DX002 (ip), vehicle: saline 98 % of control

O=C(NNC1CCN(Cc2ccccc2)CC1)c1ccccc1
inactive: dose: 10.0 mg/kg/injection, schedule: Q01DX009 (ip), vehicle: saline with Tween-80 95 % of control | dose: 10.0 mg/kg/injection, schedule: Q04DX003 (ip), vehicle: saline with Tween-80 100 % of control | dose: 20.0 mg/kg/injection, schedule: Q01DX009 (ip), vehicle: saline with Tween-80 103 % of control | dose: 20.0 mg/kg/injection, schedule: Q04DX003 (ip), vehicle: saline with Tween-80 102 % of control | dose: 40.0 mg/kg/injection, schedule: Q01DX009 (ip), vehicle: saline with Tween-80 93 % of control | dose: 40.0 mg/kg/injection, schedule: Q04DX003 (ip), vehicle: saline with Tween-80 106 % of control

COC(=O)C1(C)COP(=O)(N2CC2C)OC1 (centres undefined)
inactive: [1] 101 % of control | [2] 101 % of control | dose: 400.0 mg/kg/injection, schedule: Q01DX001 (ip), vehicle: saline 97 % of control

Cc1ccc(S(=O)(=O)Nc2ccc(C(=O)NC(CCC(=O)O)C(=O)O)cc2)cc1 (centres undefined)
inactive: dose: 100.0 mg/kg/injection, schedule: Q04DX003 (ip), vehicle: gum acacia 95 % of control | dose: 200.0 mg/kg/injection, schedule: Q04DX003 (ip), vehicle: gum acacia 98 % of control | dose: 400.0 mg/kg/injection, schedule: Q04DX003 (ip), vehicle: gum acacia 95 % of control

Nc1c(Br)cc([N+](=O)[O-])cc1Br
inactive: [3] 111 % of control | [4] 95 % of control | [5] 105 % of control

O=c1ccc(=O)c2c(=O)c3ccccc3c(=O)c1=2
inactive: [6] 97 % of control | [7] 95 % of control | [3] 101 % of control | [4] 103 % of control

N#CC(C#N)=Cc1c2ccccc2cc2ccccc12
inactive: [3] 94 % of control | [4] 91 % of control | [5] 112 % of control

CC1(C)CCC2(C)CC=C3OC(=O)CCC3(C)C2C1 (centres undefined)
inactive: [8] 92 % of control | [3] 102 % of control | [9] 89 % of control | [4] 98 % of control | [10] 94 % of control | [5] 94 % of control

CCC(CCC(C)C1CCC2C3CC=C4CC(OC5OC(CO)C(O)C(O)C5O)CCC4(C)C3CCC12C)C(C)C (centres undefined)
inactive: dose: 100.0 mg/kg/injection, schedule: Q01DX Z (ip), vehicle: Klucel (hydroxypropylcellulose) (HPC) 92 % of control | [3] 106 % of control | dose: 200.0 mg/kg/injection, schedule: Q01DX Z (ip), vehicle: Klucel (hydroxypropylcellulose) (HPC) 91 % of control | [4] 104 % of control | dose: 400.0 mg/kg/injection, schedule: Q01DX Z (ip), vehicle: Klucel (hydroxypropylcellulose) (HPC) 91 % of control | [5] 90 % of control

CCN(CC)CCCNc1ncnc2c1C(c1ccccc1)c1ccccc1-2 (centres undefined)
inactive: dose: 5.0 mg/kg/injection, schedule: Q01DX001 (ip), vehicle: saline 98 % of control | dose: 10.0 mg/kg/injection, schedule: Q01DX001 (ip), vehicle: saline 96 % of control | dose: 20.0 mg/kg/injection, schedule: Q01DX001 (ip), vehicle: saline 93 % of control | dose: 40.0 mg/kg/injection, schedule: Q01DX001 (ip), vehicle: saline 93 % of control

CC1CCC(C(O)(C(=O)O)C2CCCCC2)CC1C (centres undefined)
inactive: dose: 75.0 mg/kg/injection, schedule: Q01DX001 (ip), vehicle: carboxymethylcellulose (CMC) 97 % of control | dose: 150.0 mg/kg/injection, schedule: Q01DX001 (ip), vehicle: carboxymethylcellulose (CMC) 105 % of control | [11] 100 % of control

S=C(Nc1ccccc1)c1ccccn1
inactive: [8] 102 % of control | [9] 100 % of control | [10] 90 % of control

COC(=O)c1cc(=O)c2c(=O)[nH]c(=O)[nH]c2[nH]1
inactive: [3] 101 % of control | [4] 95 % of control | [5] 100 % of control

NC(=O)NNC(=O)c1ccccc1
inactive: [7] 100 % of control | [3] 96 % of control | dose: 200.0 mg/kg/injection, schedule: Q01DX009 (ip), vehicle: Klucel (hydroxypropylcellulose) (HPC) 104 % of control | [4] 94 % of control | dose: 400.0 mg/kg/injection, schedule: Q01DX009 (ip), vehicle: Klucel (hydroxypropylcellulose) (HPC) 98 % of control | [5] 100 % of control

CCC(Cl)COP(=O)(OCC(Cl)CC)OC(c1ccc(Cl)c(Cl)c1)P(=O)(OCC(Cl)CC)OCC(Cl)CC (centres undefined)
inactive: dose: 50.0 mg/kg/injection, schedule: Q01DX001 (ip), vehicle: saline with Tween-80 95 % of control | dose: 100.0 mg/kg/injection, schedule: Q01DX001 (ip), vehicle: saline with Tween-80 103 % of control | dose: 200.0 mg/kg/injection, schedule: Q01DX001 (ip), vehicle: saline with Tween-80 93 % of control

O=C(O)COc1ccccc1
inactive: dose: 25.0 mg/kg/injection, schedule: Q01DX009 (ip), vehicle: Klucel (hydroxypropylcellulose) (HPC) 108 % of control | [6] 105 % of control | [7] 93 % of control and 88 % of control

C=CN(C=C)P(=O)(C1C(=O)C(C(=O)OCC)C(c2ccc(OC(C)=O)cc2)C(C(=O)OCC)C1=O)C1C(=O)C(C(=O)OCC)C(c2ccc(OC(C)=O)cc2)C(C(=O)OCC)C1=O (centres undefined)
inactive: dose: 100.0 mg/kg/injection, schedule: Q04DX003 (ip), vehicle: saline with Tween-80 97 % of control | dose: 200.0 mg/kg/injection, schedule: Q04DX003 (ip), vehicle: saline with Tween-80 96 % of control | dose: 400.0 mg/kg/injection, schedule: Q04DX003 (ip), vehicle: saline with Tween-80 100 % of control

CCN1CCC(CCOC)(CN2c3ccccc3Sc3ccc(Cl)cc32)C1 (centres undefined)
inactive: dose: 100.0 mg/kg/injection, schedule: Q04DX003 (ip), vehicle: saline 89 % of control

COc1c2c(c3c(c1OC)c(=O)c1ccccc1n3C)OCO2
inactive: dose: 50.0 mg/kg/injection, schedule: Q01DX001 (ip), vehicle: carboxymethylcellulose (CMC) 96 % of control | dose: 100.0 mg/kg/injection, schedule: Q01DX001 (ip), vehicle: carboxymethylcellulose (CMC) 93 % of control | dose: 200.0 mg/kg/injection, schedule: Q01DX001 (ip), vehicle: carboxymethylcellulose (CMC) 107 % of control | [11] 102 % of control

CCOC(=O)c1nc2c(OC)nn(O)cc-2c1Br
inactive: dose: 25.0 mg/kg/injection, schedule: Q04DX002 (ip), vehicle: saline with Tween-80 92 % of control | dose: 50.0 mg/kg/injection, schedule: Q04DX002 (ip), vehicle: saline with Tween-80 89 % of control | dose: 100.0 mg/kg/injection, schedule: Q04DX002 (ip), vehicle: saline with Tween-80 96 % of control

Cc1cccc(C)c1/C=C/S(=O)(=O)c1ccccc1
inactive: dose: 100.0 mg/kg/injection, schedule: Q01DX001 (ip), vehicle: acetone 98 % of control | dose: 100.0 mg/kg/injection, schedule: Q01DX009 (ip), vehicle: saline 94 % of control | dose: 100.0 mg/kg/injection, schedule: Q04DX003 (ip), vehicle: acetone 109 % of control | dose: 200.0 mg/kg/injection, schedule: Q01DX001 (ip), vehicle: acetone 98 % of control | dose: 200.0 mg/kg/injection, schedule: Q01DX009 (ip), vehicle: saline 103 % of control | dose: 200.0 mg/kg/injection, schedule: Q04DX003 (ip), vehicle: acetone 103 % of control | dose: 400.0 mg/kg/injection, schedule: Q01DX001 (ip), vehicle: acetone 106 % of control | dose: 400.0 mg/kg/injection, schedule: Q01DX009 (ip), vehicle: saline 94 % of control | dose: 400.0 mg/kg/injection, schedule: Q04DX003 (ip), vehicle: acetone 101 % of control
